Experimental data from US12065404B2, “C4-carboxylic acid-substituted tryptamine derivatives and methods of using” (priority 2022, dated 2024).
“And” between values parts separate entries of the source, which are not always exact repeats. Equal entries are not always repeated.

Tests used:
[1] = Mouse pharmacokinetic (PK) study, parent compound and psilocin metabolite in plasma; type: in vivo, C57Bl/6 mice; details: for bioavailability: male, C57Bl/6, mouse, plasma, po, no footnote on basis (Table 36B)
Text: Briefly, the procedure was as follows. […] 19, 2022.

[2] = biological target: GABAA (Homo sapiens, UniProt P14867+P18507+P47870); type: cell-based; details: ion channel
Sequence of GABAA (P14867 28-456): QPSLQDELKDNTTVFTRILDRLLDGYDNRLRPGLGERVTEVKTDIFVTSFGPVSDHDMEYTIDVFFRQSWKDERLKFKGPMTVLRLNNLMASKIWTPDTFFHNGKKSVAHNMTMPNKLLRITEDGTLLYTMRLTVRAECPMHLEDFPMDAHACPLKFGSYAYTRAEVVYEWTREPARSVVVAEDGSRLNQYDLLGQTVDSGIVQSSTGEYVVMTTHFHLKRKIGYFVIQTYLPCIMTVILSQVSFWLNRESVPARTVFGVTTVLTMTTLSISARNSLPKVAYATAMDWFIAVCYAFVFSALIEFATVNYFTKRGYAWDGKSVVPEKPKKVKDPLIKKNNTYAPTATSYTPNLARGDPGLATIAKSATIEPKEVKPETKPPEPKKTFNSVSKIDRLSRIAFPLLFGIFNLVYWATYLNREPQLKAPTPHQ
Sequence of GABAA (P47870 26-512): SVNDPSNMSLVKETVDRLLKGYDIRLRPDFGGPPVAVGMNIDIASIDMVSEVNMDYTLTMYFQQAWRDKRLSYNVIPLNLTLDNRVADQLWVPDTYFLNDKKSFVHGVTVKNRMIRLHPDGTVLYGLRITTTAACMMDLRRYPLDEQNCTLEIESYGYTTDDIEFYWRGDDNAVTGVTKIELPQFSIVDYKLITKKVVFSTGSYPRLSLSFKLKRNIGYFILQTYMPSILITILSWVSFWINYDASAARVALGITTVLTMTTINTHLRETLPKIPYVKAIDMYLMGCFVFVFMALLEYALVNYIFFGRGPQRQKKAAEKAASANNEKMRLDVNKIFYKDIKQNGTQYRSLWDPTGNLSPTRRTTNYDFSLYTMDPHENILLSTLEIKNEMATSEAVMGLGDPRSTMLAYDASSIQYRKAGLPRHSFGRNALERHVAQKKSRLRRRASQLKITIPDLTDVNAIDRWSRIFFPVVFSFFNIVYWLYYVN
Sequence of GABAA (P18507 40-475): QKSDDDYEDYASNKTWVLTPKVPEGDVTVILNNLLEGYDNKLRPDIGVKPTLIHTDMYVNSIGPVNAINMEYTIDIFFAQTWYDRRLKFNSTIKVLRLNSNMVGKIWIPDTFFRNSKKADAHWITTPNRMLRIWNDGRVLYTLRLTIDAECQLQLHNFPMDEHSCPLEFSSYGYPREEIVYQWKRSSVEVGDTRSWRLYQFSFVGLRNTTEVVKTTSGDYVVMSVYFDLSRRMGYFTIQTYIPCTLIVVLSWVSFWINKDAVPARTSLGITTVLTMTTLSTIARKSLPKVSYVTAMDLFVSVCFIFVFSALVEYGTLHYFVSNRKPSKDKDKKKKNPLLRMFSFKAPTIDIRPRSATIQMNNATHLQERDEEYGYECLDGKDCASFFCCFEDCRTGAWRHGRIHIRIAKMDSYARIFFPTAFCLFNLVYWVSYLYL

[3] = administered compound itself in plasma, 1 mg/kg i.v., individual animals, 1 mg/kg
[4] = administered compound itself in plasma, 1 mg/kg i.v., mean ± SD
[5] = administered compound itself in plasma, 1 mg/kg oral, individual animals, 1 mg/kg
[6] = administered compound itself in plasma, 1 mg/kg oral, mean ± SD
[7] = administered compound itself in plasma, 3 mg/kg oral, individual animals, 3 mg/kg
[8] = administered compound itself in plasma, 3 mg/kg oral, mean ± SD
[9] = plasma C(XX), 3 mg/kg p.o. C(XX), mean
[10] = plasma C(XX), 10 mg/kg oral C(XX), animals M58-M60, 10 mg/kg
[11] = plasma C(XX), 10 mg/kg oral C(XX), mean (n = 2)
[12] = plasma C(XX), 10 mg/kg oral C(XX), mean ± SD
[13] = plasma C(XX), 10 mg/kg oral C(XX), mean ± SD, 10 mg/kg

CN(C)CCc1c[nH]c2cccc(OC(=O)c3cccc4c3OCCO4)c12 [C(XX)]
MRT0-inf [1, 3]: 22 min and 25.7 min
Vss [1, 3]: 5.874 L/kg and 8.913 L/kg
AUC0-inf/Dose [1, 4]: 53.0 ± 8.26 kg·ng·h/mL/mg
AUC0-tlast/Dose [1, 4]: 52.8 ± 8.30 kg·ng·h/mL/mg
MRT0-inf [1, 4]: 24.7 ± 2.27 min
Cmax [1, 5]: 0.509 ng/mL and 0.648 ng/mL
Cmax/Dose [1, 5]: 0.702 kg·ng/mL/mg and 0.509 kg·ng/mL/mg and 0.648 kg·ng/mL/mg
tmax [1, 5]: 15 min
Cmax [1, 6]: 0.620 ± 0.0996 ng/mL
Cmax/Dose [1, 6]: 0.620 ± 0.0996 kg·ng/mL/mg
AUC0-inf [1, 7]: 1.72 ng·h/mL and 1.53 ng·h/mL
AUC0-inf/Dose [1, 7]: 0.433 kg·ng·h/mL/mg and 0.572 kg·ng·h/mL/mg and 0.510 kg·ng·h/mL/mg
AUC0-tlast [1, 7]: 1.48 ng·h/mL and 1.42 ng·h/mL
AUC0-tlast/Dose [1, 7]: 0.406 kg·ng·h/mL/mg and 0.494 kg·ng·h/mL/mg and 0.474 kg·ng·h/mL/mg
Apparent t1/2 [1, 7]: 40.1 min and 28.9 min
Cmax [1, 7]: 1.72 ng/mL and 1.93 ng/mL
Cmax/Dose [1, 7]: 0.497 kg·ng/mL/mg and 0.573 kg·ng/mL/mg and 0.643 kg·ng/mL/mg
MRT0-inf [1, 7]: 64.8 min and 49.4 min
AUC0-inf [1, 8]: 1.51 ± 0.210 ng·h/mL
AUC0-inf/Dose [1, 8]: 0.505 ± 0.0700 kg·ng·h/mL/mg
AUC0-tlast [1, 8]: 1.37 ± 0.137 ng·h/mL
AUC0-tlast/Dose [1, 8]: 0.458 ± 0.0457 kg·ng·h/mL/mg
Cmax [1, 8]: 1.71 ± 0.220 ng/mL
Cmax/Dose [1, 8]: 0.571 ± 0.0734 kg·ng/mL/mg
bioavailability ([1]; 3 mg/kg, 3 mg/kg oral, individual animals): 0.816%
bioavailability ([1]; 3 mg/kg, 3 mg/kg oral, mean ± SD): 0.953 ± 0.132%
AUC0-tlast/Dose ([1]; plasma C(XX), 1 mg/kg i.v. C(XX), mean): 52.8 kg·ng·h/mL/mg
Cmax/Dose ([1]; plasma C(XX), 1 mg/kg p.o. C(XX), mean): 0.620 kg·ng/mL/mg
AUC0-tlast/Dose [1, 9]: 0.458 kg·ng·h/mL/mg
Cmax/Dose [1, 9]: 0.571 kg·ng/mL/mg
F [1, 9]: 0.953%
tmax ([1]; plasma C(XX), 10 mg/kg oral C(XX), animals M58-M60): 15 min
AUC0-inf [1, 10]: 5.40 ng·h/mL and 10.7 ng·h/mL
AUC0-tlast [1, 10]: 5.65 ng·h/mL and 4.99 ng·h/mL and 9.16 ng·h/mL
AUC0-tlast/Dose [1, 10]: 0.565 kg·ng·h/mL/mg and 0.499 kg·ng·h/mL/mg and 0.916 kg·ng·h/mL/mg
F ([1]; plasma C(XX), 10 mg/kg oral C(XX), animals M58-M60, AUC0-tlast used, 10 mg/kg): 1.07% and 0.941% and 1.73%
AUC0-inf [1, 11]: 8.03 ng·h/mL
Apparent t1/2 [1, 11]: 186 min
MRT0-inf [1, 11]: 131 min
AUC0-tlast [1, 12]: 6.60 ± 2.24 ng·h/mL
Cmax [1, 12]: 7.47 ± 3.92 ng/mL
tmax [1, 12]: 15 ± 0 min
AUC0-tlast/Dose [1, 13]: 0.660 ± 0.224 kg·ng·h/mL/mg and 0.660 kg·ng·h/mL/mg
Cmax/Dose [1, 13]: 0.747 ± 0.392 kg·ng/mL/mg and 0.747 kg·ng/mL/mg
F ([1]; plasma C(XX), 10 mg/kg oral C(XX), mean ± SD, AUC0-tlast used, 10 mg/kg): 1.24 ± 0.423% and 1.24%
IC50 ([2]; blocker (BL)): > 100 µM
EC50 ([2]; opener (OP)): > 100 µM
